According to US20220098228A1, “METHODS AND COMPOSITIONS FOR IMPROVING THE IMMUNE SYSTEM AND PROVIDING IMMUNO-PROTECTION” (Natreon, Inc., priority 2020, published 2022):
Marks after values point to notes of the source that are not given here.

Key:
Swiss albino mice = test: Cyclophosphamide-induced immunosuppression in mice, overall conclusion (Example II); format: in vivo; conditions: treatment for 7 days at 10 mg/kg body weight (p.o.)
Method: All experiments were conducted between 10.00 hr and 14.00 hr. […] Control animals received equivalent volume of the vehicles CMC (0.3%) solutions only.

peritoneal macrophages [1] = test: NBT reduction assay in peritoneal macrophages, cyclophosphamide-induced immunosuppression (Example II); format: in vivo, Swiss albino mice; conditions: for OD (515 nm), NBT reduction assay in peritoneal macrophages: 10 mg/kg body weight p.o. 7 days + cyclophosphamide 250 mg/kg i.p., Mean ± SD, n = 6; for improvement in NBT reduction capacity: 10 mg/kg body weight p.o., in comparison with cyclophosphamide treated mice
Method: (§1) The mice were acclimatized for one week in the laboratory conditions, before being used in the experiment. All experiments were conducted between 10.00 hr and 14.00 hr. Principles of laboratory animal care (NIH publication no. 85-23, revised 1985) were followed.
(§2) All test compounds (DBPs and DBP glycosides) were suspended in 0.3% of CMC (Carboxymethyl Cellulose) solutions of distilled water and were administered orally for 7 days by using an intubation canula. The volume of dose was 100 μl/10 g body weight. Cyclophosphamide was dissolved in distilled water and was injected (250 mg/kg, i.p.) on day one and volume of dose was 100 μl/10 g body weight. Control animals received equivalent volume of the vehicles CMC (0.3%) solutions only.
On day seven all the animals were sacrificed under ether anesthesia and peritoneal macrophages were lavaged using ice cold phosphate buffer saline (PBS: 0.15M NaCl pH-7.4). After centrifugation (3000 rpm×10 min) at 4° C. the pellet was re-suspended in PBS and cell viability was confirmed by trypan blue exclusion method. (Bala A, Haldar P K, Kar B, Naskar S and Mazumder U K, “Carbon tetrachloride: A hepatotoxin causes oxidative stress in murine peritoneal macrophage and peripheral blood lymphocyte cells” Immunopharmacol. and Immunotoxicol. 34(1): 157-162 (2012)).
Preparation of NBT solution: 0.2% NBT (nitroblue tetrazolium) in PB (Phosphate Buffer, pH 7.4), 5% dextrose and HBSS (Hank's balanced salt solution). The three solutions were mixed in 6:2:4 ratios. (Saxena A K, Singh K P, Srivastava S N, Shukla L J and Shanker R., “Immunomodulating effects of caffeine in rodents” Ind J Exptl Biol. 22: 298-301 (1984)).
Method: 0.5 ml of NBT solution was added to 0.5 ml of peritoneal macrophages (1×10^6 cells/ml) in a micro-centrifuge tube. This mixture was incubated at 37° C. for 45 minutes. The cell suspension was centrifuged at 1500 rpm for 10 minutes. Supernatant was discarded and pellet was re-suspended in 2 ml of DMSO. The tubes were kept in a boiling water bath for 10 minutes. The tubes were again centrifuged at 1500 rpm for 10 minutes. The supernatant was collected, and absorbance was measured at 515 nm.

splenocytes [2] = test: Cell viability of splenocytes, trypan blue exclusion, cyclophosphamide-induced immunosuppression (Example II); format: in vivo, Swiss albino mice; conditions: for % Cell Viability of splenocytes: 10 mg/kg body weight p.o. 7 days + cyclophosphamide 250 mg/kg i.p., Mean ± SD, n = 6
Method: as §1, §2
Spleen was collected. Single cell suspension was prepared by mincing and tapping the spleen fragments on stainless steel 200-mesh in ice cold phosphate buffer saline (PBS: 0.15M NaCl pH 7.4). Cell suspension was centrifuged at 2000 rpm for 10 minutes. The pellet was re-suspended in PBS and cell viability was confirmed by trypan blue exclusion method.

peritoneal macrophages [3] = test: NBT reduction of peritoneal macrophages (Example III); format: in vivo, Swiss albino mice; conditions: for NBT reduction compared with cyclophosphamide treated mice: 3,8-(OH)2-DBP 50 mg/kg, combined 12 and 60 mg/kg; for NBT reduction compared with vehicle control: cyclophosphamide, 3-OH-DBP 2 and 10 mg/kg, combined 12 mg/kg
Method: (§3) Male and female Swiss albino mice (n=8; 4 from each gender) weighing approximately 25±5 g, were obtained from National Research Institute of Ayurveda for Drug Development (Govt. of India), Kolkata, and were housed in polypropylene cages at 22±3° C., relative air humidity of 45 to 55%, with 12.00 h light & dark cycle (lighting on from 6:00 AM to 6:00 PM). […] The mice were acclimatized for one week in the laboratory conditions, before being used in the experiment. All experiments were conducted between 10.00 h and 14.00 h. Principles of laboratory animal care (NIH publication no. 85-23, revised 1985) was followed.
(§4) Cyclophosphamide was dissolved in distilled water and the mice were administered a single exposure (250 mg/kg, i.p.) on day 1.
(§5) 3-OH-DBP, 3,8-(OH)2-DBP, and combined 3-OH-DBP+3,8-(OH)2-DBP were administered once daily for 7 days starting from day 1. Following 7 days of treatment the mice were anaesthetized and sacrificed under anaesthesia followed by collection of peritoneal macrophages and spleen (for splenocyte isolation).
(§6) Swiss albino mice were randomly divided into 8 Groups (n=8; 4 from each gender). […] (2:10) (12 mg/kg b.w., p.o.), Group VI mice were administered 3-OH-DBP (10 mg/kg b.w., p.o.), Group VII mice were administered 3,8-(OH)2-DBP (50 mg/kg b.w., p.o.), Group VIII mice were administered [3-OH-DBP+3,8-(OH)2-DBP] (10:50) (60 mg/kg b.w., p.o.).
(§7) All the animals were sacrificed under ether anesthesia and peritoneal macrophages were lavaged using ice cold phosphate buffer saline (PBS: 0.15 M NaCl; pH: 7.4). After centrifugation (3000 rpm×10 min) at 4° C., pellets were re-suspended in PBS and cell viability was confirmed by trypan blue exclusion assay.
Preparation of NBT solution: 0.2% NBT (nitroblue tetrazolium) in PBS (pH 7.4), 5% dextrose and HBSS. These three solutions were mixed in 6:2:4 ratios.
0.5 ml of NBT solution was added to 0.5 ml of peritoneal macrophages (1×10^6 cells/ml) in micro-centrifuge tube. This mixture was incubated at 37° C. for 2 hours. The cell suspension was centrifuged at 2000 rpm for 10 minutes. Supernatants were discarded and pellets were re-suspended in 1 ml of DMSO. The tubes were kept in boiling water bath for 10 minutes and then cooled and centrifuged at 2000 rpm for 10 minutes. The supernatants were collected and absorbance was measured at 515 nm.
(§8) Results were expressed in terms of mean±SEM (n=8; 4 from each gender). Data were subjected to one way ANOVA followed by Tukey's test using GraphPad Prism 4.0 software to establish statistical significance (*p<0.05, **p<0.01, ***p<0.001, where * refers to comparison with Group I vehicle control; #p<0.05, ##p<0.01, ###p<0.001, where #refers to comparison with Group II cyclophosphamide administration; ^ap<0.05, ^aap<0.01, ^aap<0.01, where a refers to comparison of Day 7 with Day 0).

peritoneal macrophages [4] = test: Peritoneal macrophage viability, trypan blue exclusion (Example III); format: in vivo, Swiss albino mice
Method: as §3, §4, §5, §6, §7, §8

[5] = mouse, in vivo
Method: as §3, §4, §5, §6, §8

splenocytes [6] = test: Splenocyte viability, trypan blue exclusion (Example III); format: in vivo, Swiss albino mice; conditions: for % Viability Day7, splenocyte viability: Day 7
Method: as §3, §4, §5, §6
Spleens were collected and single cell suspension was prepared by mincing and tapping the spleen fragments on stainless steel 200-mesh in ice cold phosphate buffer saline (PBS: 0.15M NaCl; pH: 7.4). Cell suspensions were centrifuged at 2000 rpm for 10 minutes.
as §8

[7] = female mice, 10 mg/kg p.o. + cyclophosphamide 250 mg/kg i.p.
[8] = female mice, 50 mg/kg p.o. + cyclophosphamide 250 mg/kg i.p.
[9] = male mice, 10 mg/kg p.o. + cyclophosphamide 250 mg/kg i.p.
[10] = male mice, 50 mg/kg p.o. + cyclophosphamide 250 mg/kg i.p.
[11] = female mice, 3-OH-DBP 2 and 10 mg/kg, 3,8-(OH)2-DBP 10 and 50 mg/kg, combined 12 and 60 mg/kg
[12] = male mice, 3-OH-DBP 10 mg/kg, 3,8-(OH)2-DBP 50 mg/kg, combined 60 mg/kg

For `O=c1oc2cc(OC3OC(CO)C(O)C(O)C3O)ccc2c2ccccc12` [3-OH-DBP glycoside, 3-O-D-Glucopyranosyl-Dibenzo-alpha-pyrone], which “Cyclophosphamide-induced immunosuppression (conclusion)” value (Swiss albino mice) is on record?
The value was “rescued”.

And the “OD (515 nm), NBT reduction assay in peritoneal macrophages” value (“OD (515 nm), NBT reduction assay” below) (peritoneal macrophages [1])?
The value was 0.168 ± 0.014.

What about the “improvement in NBT reduction capacity” value (peritoneal macrophages [1]) of the same molecule?
The value was “highest level of improvement”.

What about the “% Cell Viability of splenocytes” value (splenocytes [2]) of the same molecule?
Its value is 60.39 ± 5.85 %.

And the “improvement in splenocyte viability” value (splenocytes [2]; 10 mg/kg p.o. in cyclophosphamide-treated mice)?
The value was “significant improvement”.

With `O=c1oc2cc(O)ccc2c2ccc(O)cc12` [3,8-(OH)2-DBP, 3,8-dihydroxy-dibenzo-alpha-pyrone] as the molecule, how does the “NBT reduction compared with cyclophosphamide treated mice” value (peritoneal macrophages [3]; female mice, 3-OH-DBP 10 mg/kg) read?
The value was “significantly (p<0.05, p<0.01, p<0.001) increased”.

And the “O.D. (515 nm) Day 7, NBT reduction of peritoneal macrophages” value (peritoneal macrophages [3]; [7])?
Its value is 0.159 ± 0.02***.

And the “O.D. (515 nm) Day 7, NBT reduction of peritoneal macrophages” value (peritoneal macrophages [3]; [8])?
The value was 0.294 ± 0.008*,###.

And the “NBT reduction compared with vehicle control” value (peritoneal macrophages [3]; female mice, 3,8-(OH)2-DBP 10 and 50 mg/kg)?
Its value is “significantly (p<0.05, p<0.01, p<0.001) decreased”.

And the “NBT reduction compared with cyclophosphamide treated mice” value (peritoneal macrophages [3]; male mice, NBT reduction capacity increased)?
The value was “significantly (p<0.05, p<0.01, p<0.001) reversed”.

And the “O.D (515 nm) Day 7, NBT reduction of peritoneal macrophages” value (peritoneal macrophages [3]; [9])?
The value was 0.294 ± 0.04499***.

What about the “O.D (515 nm) Day 7, NBT reduction of peritoneal macrophages” value (peritoneal macrophages [3]; [10]) of the same molecule?
The value was 0.476 ± 0.07172##.

What about the “NBT reduction compared with vehicle control” value (peritoneal macrophages [3]; male mice, 3,8-(OH)2-DBP 10 mg/kg) of the same molecule?
Its value is “significantly (p<0.01, p<0.001) decreased”.

What about the “peritoneal macrophage viability compared with cyclophosphamide treated mice” value (peritoneal macrophages [4]; [11]) of the same molecule?
Its value is “significantly (p<0.05, p<0.01) increased”.

What about the “% Viability Day 7, peritoneal macrophage viability” value (peritoneal macrophages [4]; [7]) of the same molecule?
Its value is 65.78 ± 2.38** %.

What about the “% Viability Day 7, peritoneal macrophage viability” value (peritoneal macrophages [4]; [8]) of the same molecule?
Its value is 75.27 ± 0.53^# %.

And the “peritoneal macrophage viability compared with cyclophosphamide treated mice” value (peritoneal macrophages [4]; [12])?
Its value is “significantly (p<0.05, p<0.01) increased”.

And the “% Viability Day 7, peritoneal macrophage viability” value (peritoneal macrophages [4]; [9])?
The value was 60.34 ± 1.84%.

What about the “% Viability Day 7, peritoneal macrophage viability” value (peritoneal macrophages [4]; [10]) of the same molecule?
Its value is 70.91 ± 1.24# %.

And the “peritoneal macrophage viability compared with vehicle control” value (peritoneal macrophages [4]; male mice, cyclophosphamide, 3-OH-DBP 2 mg/kg, 3,8-(OH)2-DBP 10 mg/kg)?
The value was “significantly (p<0.05) decreased”.

And the “OD (515 nm), NBT reduction assay” value (peritoneal macrophages [1])?
Its value is 0.144 ± 0.010^.

And the “body weight Day 7 in comparison to Day 0” value [5]?
Its value is “significantly (p<0.05) decreased”.

What about the “feed intake Day 7 in comparison to Day 0” value [5] of the same molecule?
The value was “significantly (p<0.05, p<0.01) decreased”.

What about the “feed intake compared to vehicle control” value [5] of the same molecule?
Its value is “significantly (p<0.05, p<0.01) decreased”.

And the “water intake compared with cyclophosphamide treated mice” value [5]?
The value was “significantly (p<0.001) decreased”.

What about the “water intake compared with vehicle control” value [5] of the same molecule?
The value was “significantly (p<0.001) decreased”.

And the “water intake compared with vehicle control and cyclophosphamide treated mice” value [5]?
Its value is “significantly (p<0.05, p<0.001) decreased”.

What about the “% Cell Viability of splenocytes” value (splenocytes [2]) of the same molecule?
The value was 54.90 ± 5.01%.

What about the “splenocyte viability compared with cyclophosphamide treated mice” value (splenocytes [6]; [11]) of the same molecule?
The value was “significantly (p<0.05, p<0.01, p<0.001) increased”.

What about the “% Viability Day7, splenocyte viability” value (splenocytes [6]; [7]) of the same molecule?
Its value is 89.50 ± 2.30# %.

What about the “% Viability Day7, splenocyte viability” value (splenocytes [6]; [8]) of the same molecule?
The value was 90.87 ± 1.98## %.

What about the “restoration of splenocyte viability” value (splenocytes [6]; male mice, 50 mg/kg 3,8-(OH)2-DBP (Group VII), 60 mg/kg DBP combination (Group VIII)) of the same molecule?
Its value is “restored”.

And the “splenocyte viability compared with cyclophosphamide treated mice” value (splenocytes [6]; [12])?
The value was “significantly higher”.

And the “% Viability Day7, splenocyte viability” value (splenocytes [6]; [9])?
Its value is 68.69 ± 2.21*** %.

What about the “% Viability Day7, splenocyte viability” value (splenocytes [6]; [10]) of the same molecule?
Its value is 90.14 ± 0.36## %.

What about the “splenocyte viability compared with vehicle control” value (splenocytes [6]; male mice, cyclophosphamide, 2 mg/kg 3-OH-DBP, 10 mg/kg 3,8-(OH)2-DBP, 12 mg/kg combined) of the same molecule?
Its value is “similarly decreased”.

With `O=c1oc2cc(OC3OC(CO)C(O)C(O)C3O)ccc2c2ccc(OC3OC(CO)C(O)C(O)C3O)cc12` [3,8-(OH)2-DBP glycoside, 3,8-di-(O-D-Glucopyranosyl)-Dibenzo-alpha-pyrone] as the molecule, how does the “Cyclophosphamide-induced immunosuppression (conclusion)” value (Swiss albino mice) read?
The value was “rescued”.

And the “OD (515 nm), NBT reduction assay” value (peritoneal macrophages [1])?
The value was 0.153 ± 0.013.

And the “improvement in NBT reduction capacity” value (peritoneal macrophages [1])?
The value was “moderate (p<0.05) improvement”.

And the “% Cell Viability of splenocytes” value (splenocytes [2])?
The value was 58.58 ± 4.49%.
